IC50 data for 13 compounds are collected here from BindingDB's records for doi:10.1111/cbdd.12881 (Sichuan University, 2017).

What all share (test): In Vitro Enzymatic Assay
What all share (settings): 25 °C

Experiment [1] has as its target Protein arginine N-methyltransferase 5 (Homo sapiens, UniProt O14744). The protocol: (§1) All in vitro enzymatic assays were carried out by Shanghai ChemPartner Co. (998 Halei Road, Pudong New Area, Shanghai, 201203, China). To measure the IC50 values, 10 concentrations of the target compound were tested. Compounds were prepared as10 mM stock in DMSO and diluted to final concentration in DMSO when needed. The PRMT enzymes and substrates were incubated with indicated concentrations of compounds in a 384-well plate for 60 min at room temperature. After the reaction, acceptor and donor solutions were added to label the residual substrates of PRMT enzymes. The labeling process was lasting for 60 min at room temperature, followedby the reading end-point with Enspire with alpha mode.

The target of experiment [2] is T1, Protein arginine N-methyltransferase 1 [11-371] (Homo sapiens, UniProt Q99873).
T1 construct: 11-371
The protocol: as §1

Experiment [3] has as its target Protein arginine N-methyltransferase 3 [N508S] (Homo sapiens, UniProt O60678, N508S). The protocol:
as §1

Experiment [4] concerns the target T2, Protein arginine N-methyltransferase 7 (Homo sapiens, UniProt Q9NVM4).
T2 sequence (Q9NVM4 whole entry): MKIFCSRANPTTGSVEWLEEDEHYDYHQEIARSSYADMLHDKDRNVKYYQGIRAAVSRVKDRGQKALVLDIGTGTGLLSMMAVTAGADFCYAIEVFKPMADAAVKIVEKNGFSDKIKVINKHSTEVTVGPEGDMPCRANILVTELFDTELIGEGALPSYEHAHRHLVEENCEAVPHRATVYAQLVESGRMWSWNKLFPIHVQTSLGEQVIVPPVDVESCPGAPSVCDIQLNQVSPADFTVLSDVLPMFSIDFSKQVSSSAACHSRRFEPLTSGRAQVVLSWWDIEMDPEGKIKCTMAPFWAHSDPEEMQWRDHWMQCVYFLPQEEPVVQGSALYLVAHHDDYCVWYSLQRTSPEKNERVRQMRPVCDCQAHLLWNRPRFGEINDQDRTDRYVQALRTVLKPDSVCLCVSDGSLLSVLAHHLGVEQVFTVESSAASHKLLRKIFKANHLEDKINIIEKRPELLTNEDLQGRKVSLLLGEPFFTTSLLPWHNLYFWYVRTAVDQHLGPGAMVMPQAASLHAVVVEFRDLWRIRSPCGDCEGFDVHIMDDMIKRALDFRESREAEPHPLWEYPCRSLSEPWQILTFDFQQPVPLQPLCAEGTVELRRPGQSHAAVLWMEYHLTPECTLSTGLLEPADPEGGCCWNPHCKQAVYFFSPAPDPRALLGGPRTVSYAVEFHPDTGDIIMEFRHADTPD
The protocol:
as §1

For experiment [5], the target named is T3, Histone-arginine methyltransferase CARM1 (Homo sapiens, UniProt Q86X55).
T3 sequence (Q86X55 whole entry): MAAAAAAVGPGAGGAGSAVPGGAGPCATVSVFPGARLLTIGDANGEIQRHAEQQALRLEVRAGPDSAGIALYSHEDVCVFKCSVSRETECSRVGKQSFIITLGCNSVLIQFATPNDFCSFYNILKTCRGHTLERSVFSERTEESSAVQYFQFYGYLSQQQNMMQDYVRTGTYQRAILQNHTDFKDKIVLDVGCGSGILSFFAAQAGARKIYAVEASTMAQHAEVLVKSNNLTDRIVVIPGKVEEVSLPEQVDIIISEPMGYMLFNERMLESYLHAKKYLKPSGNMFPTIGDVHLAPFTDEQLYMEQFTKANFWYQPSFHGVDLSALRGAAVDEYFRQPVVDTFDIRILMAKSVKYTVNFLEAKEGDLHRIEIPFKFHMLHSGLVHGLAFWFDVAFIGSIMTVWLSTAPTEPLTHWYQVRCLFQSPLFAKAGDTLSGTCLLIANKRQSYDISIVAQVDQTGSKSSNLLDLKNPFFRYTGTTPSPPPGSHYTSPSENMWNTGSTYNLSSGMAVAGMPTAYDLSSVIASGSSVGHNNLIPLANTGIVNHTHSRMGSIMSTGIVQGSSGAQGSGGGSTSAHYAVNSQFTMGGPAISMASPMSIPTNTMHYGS
The protocol: as §1

Experiment [6] concerns the target Protein arginine N-methyltransferase 8 (Homo sapiens, UniProt Q9NR22). Here is the method:
as §1

The target of experiment [7] is Protein arginine N-methyltransferase 6 (Homo sapiens, UniProt Q96LA8). Here is the method:
as §1

pIC50: −log10 of the molar value.

As usually defined, the pIC50 is the negative decadic logarithm of the IC50, by convention in mol/L. A higher pIC50 goes with a low IC50.

Protein arginine N-methyltransferase 5, sequence (O14744 whole entry): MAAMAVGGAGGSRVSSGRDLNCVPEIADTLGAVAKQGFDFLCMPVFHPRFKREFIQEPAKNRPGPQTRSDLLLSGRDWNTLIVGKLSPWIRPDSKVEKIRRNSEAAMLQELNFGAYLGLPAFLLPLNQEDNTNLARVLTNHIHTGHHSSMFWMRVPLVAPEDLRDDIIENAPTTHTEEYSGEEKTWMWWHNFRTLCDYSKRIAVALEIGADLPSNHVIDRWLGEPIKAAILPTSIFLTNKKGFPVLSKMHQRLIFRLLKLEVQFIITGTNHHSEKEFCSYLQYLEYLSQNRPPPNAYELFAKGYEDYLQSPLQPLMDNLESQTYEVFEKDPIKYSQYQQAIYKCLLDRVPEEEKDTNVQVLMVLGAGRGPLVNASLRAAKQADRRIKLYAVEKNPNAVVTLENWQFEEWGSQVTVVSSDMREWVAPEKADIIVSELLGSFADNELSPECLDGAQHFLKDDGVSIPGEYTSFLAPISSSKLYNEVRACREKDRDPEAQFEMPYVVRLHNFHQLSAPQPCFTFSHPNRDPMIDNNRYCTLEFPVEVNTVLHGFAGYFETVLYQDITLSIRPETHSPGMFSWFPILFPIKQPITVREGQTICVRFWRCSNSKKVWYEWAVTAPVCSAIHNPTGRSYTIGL
T1 sequence (Q99873 11-371): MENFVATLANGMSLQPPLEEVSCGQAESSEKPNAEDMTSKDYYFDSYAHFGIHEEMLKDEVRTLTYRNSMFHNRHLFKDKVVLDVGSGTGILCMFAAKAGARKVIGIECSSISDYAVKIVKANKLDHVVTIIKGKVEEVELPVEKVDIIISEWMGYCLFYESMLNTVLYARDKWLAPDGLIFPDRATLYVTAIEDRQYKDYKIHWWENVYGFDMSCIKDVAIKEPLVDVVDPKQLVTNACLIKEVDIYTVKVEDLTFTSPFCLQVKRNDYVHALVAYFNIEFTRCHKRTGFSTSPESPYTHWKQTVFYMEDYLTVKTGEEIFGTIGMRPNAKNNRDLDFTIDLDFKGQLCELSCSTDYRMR
Protein arginine N-methyltransferase 6, sequence (Q96LA8 whole entry): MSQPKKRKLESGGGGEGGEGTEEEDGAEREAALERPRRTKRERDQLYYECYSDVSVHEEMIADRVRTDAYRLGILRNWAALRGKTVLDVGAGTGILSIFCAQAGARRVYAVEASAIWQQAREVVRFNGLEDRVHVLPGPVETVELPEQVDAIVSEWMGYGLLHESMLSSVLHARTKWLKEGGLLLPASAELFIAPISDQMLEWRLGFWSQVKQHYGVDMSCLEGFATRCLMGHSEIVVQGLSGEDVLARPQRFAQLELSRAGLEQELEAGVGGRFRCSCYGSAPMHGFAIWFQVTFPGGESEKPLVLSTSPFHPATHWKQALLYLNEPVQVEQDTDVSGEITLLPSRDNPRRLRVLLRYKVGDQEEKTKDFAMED
Protein arginine N-methyltransferase 3 [N508S], sequence (O60678 2-531 N508S limits assumed): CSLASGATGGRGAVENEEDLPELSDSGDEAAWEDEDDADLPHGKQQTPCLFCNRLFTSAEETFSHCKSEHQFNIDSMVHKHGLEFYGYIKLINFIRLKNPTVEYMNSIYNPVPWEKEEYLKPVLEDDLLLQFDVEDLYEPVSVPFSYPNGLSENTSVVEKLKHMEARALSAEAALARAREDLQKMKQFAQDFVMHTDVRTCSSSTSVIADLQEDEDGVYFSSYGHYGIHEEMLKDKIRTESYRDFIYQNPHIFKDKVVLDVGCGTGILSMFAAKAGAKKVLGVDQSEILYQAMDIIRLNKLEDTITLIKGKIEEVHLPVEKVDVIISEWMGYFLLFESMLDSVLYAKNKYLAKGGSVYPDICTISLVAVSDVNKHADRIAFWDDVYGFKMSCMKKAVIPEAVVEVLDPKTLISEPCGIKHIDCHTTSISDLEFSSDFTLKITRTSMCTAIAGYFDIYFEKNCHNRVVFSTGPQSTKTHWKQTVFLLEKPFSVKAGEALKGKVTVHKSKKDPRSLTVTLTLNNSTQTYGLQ
Protein arginine N-methyltransferase 8, sequence (Q9NR22 whole entry): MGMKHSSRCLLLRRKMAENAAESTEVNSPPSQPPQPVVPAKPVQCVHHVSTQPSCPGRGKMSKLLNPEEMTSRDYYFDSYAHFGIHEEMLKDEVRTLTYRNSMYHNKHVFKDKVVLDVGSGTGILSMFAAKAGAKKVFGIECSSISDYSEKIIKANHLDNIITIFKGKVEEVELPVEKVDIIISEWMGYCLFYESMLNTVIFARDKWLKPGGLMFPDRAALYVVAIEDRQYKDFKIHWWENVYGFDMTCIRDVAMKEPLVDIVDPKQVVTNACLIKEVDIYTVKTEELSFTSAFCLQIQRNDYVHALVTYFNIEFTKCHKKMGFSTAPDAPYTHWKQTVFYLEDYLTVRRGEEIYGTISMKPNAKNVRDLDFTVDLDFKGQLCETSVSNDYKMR

Turning to `NC(=O)N/N=C/c1cccc(-c2ccc(Cl)cc2)c1` [2-((4′-chloro-[1,1′-biphenyl]-3-yl)methylene)hydrazinecarboxamide (9b)], in experiment [1], the negative logarithm of the IC50 (pIC50) was 5.42.
The compound `NC(=O)N/N=C/c1ccc(-c2ccc(Cl)cc2N)o1` [2-((5-(2-amino-4-chlorophenyl)furan-2-yl)methylene)hydrazinecarboxamide (4m)] gave a pIC50 in experiment [1] of 4.89.
For `NC(=O)N/N=C/c1ccc(-c2cccc(F)c2)o1` [2-((5-(3-fluorophenyl)furan-2-yl)methylene)hydrazinecarboxamide (4d)], the pIC50 in experiment [1] was 4.85.
Still for that read-out and setting: in the case of `NC(=O)N/N=C/c1ccc(-c2ccc(N)cc2)o1` [2-((5-(4-aminophenyl)furan-2-yl)methylene)hydrazinecarboxamide (4j)] it was 4.40.
Still for that read-out and setting: for `NC(=O)N/N=C/c1cncc(-c2ccc(Cl)cc2)c1` [2-((5-(4-chlorophenyl)pyridin-3-yl)methylene)hydrazinecarboxamide (9f)] the value was 5.16; for `NC(=O)N/N=C/c1ccc(-c2ccc(F)cc2)o1` [2-((5-(4-fluorophenyl)furan-2-yl)methylene)hydrazinecarboxamide (4e)], 4.92; for `COc1ccc(-c2ccc(/C=N/NC(N)=O)o2)cc1` [2-((5-(4-methoxyphenyl)furan-2-yl)methylene)hydrazinecarboxamide (4h)], 5.68.
Same read-out and setting: for `NC(=O)N/N=C/c1ccc(-c2ccc([N+](=O)[O-])cc2)o1` [2-((5-(4-nitrophenyl)furan-2-yl)methylene)hydrazinecarboxamide (4g)] the value was 4.74; for `NC(=O)N/N=C/c1ccc(-c2ccccc2)o1` [2-((5-phenylfuran-2-yl)methylene)hydrazinecarboxamide (4a)], 4.92.
`NC(=O)N/N=C/c1cccc(-c2ccc(Cl)cc2)n1` [2-((6-(4-chlorophenyl)pyridin-2-yl)methylene)hydrazinecarboxamide (9g)] had a negative-log IC50 (pIC50) in experiment [1] of 5.46.
On the same count and under the same terms, in the case of `O=C1NC(=S)NC(=O)C1=Cc1ccc(-c2ccc(Cl)cc2)o1` [5-{[5-(4-chlorophenyl)furan-2-yl]methylidene}-2-sulfanylidene-1,3-diazinane-4,6-dione] it was 4.17.
As to `NC(=O)N/N=C/c1ccc(-c2ccc(Cl)cc2)o1` [P5i-6], the negative-log IC50 (pIC50) in experiment [2], in experiment [3], in experiment [4], in experiment [5], in experiment [6] and in experiment [7] was less than 4.00 in each case.
`NC(=S)N/N=C/c1ccc(-c2ccc(Cl)cc2)o1` [P5i-7] showed a pIC50 in experiment [1] of 6.14.
